Measured values taken from publication PMC12114598, “Repositioning FDA-Approved Sulfonamide-Based Drugs as Potential Carbonic Anhydrase Inhibitors in Trypanosoma cruzi: Virtual Screening and In Vitro Studies” (Pharmaceuticals, 2025).

Experiments:
[1] = in vitro; format: cell-based; conditions: mouse
Method: Cytotoxicity assays were performed using the methodology proposed by Domínguez-Diaz et al. on a mouse macrophage cell line (J774.2). Cells were cultured in LIT medium supplemented with 10% SFB, penicillin (100 U μg/mL), and streptomycin (100 U μg/mL) at 37 °C in a 5% CO2 atmosphere. The culture medium was replaced at 2–3 day intervals. To evaluate the cytotoxicity of the compounds, 50,000 cells/well were plated in a 96-well plate and allowed to adhere for 24 h at 37 °C. Subsequently, the compounds were added at concentrations of 0.8 to 100 μg/mL to obtain a final volume of 200 μL and incubated for […] with 5% CO2. DMSO 0.1% (maximum concentration used) was included as a negative control and the control drugs as positive ones. The metabolic activity of the cell was determined following the MTT method, the % cell viability was calculated, and the median lethal concentration (LC50) was determined by Probit analysis. Analyses were performed in triplicate, and the Selectivity Index (SI) for the three parasitic stages in the NINOA and A1 strains (CC50/IC50) was calculated.

[2] = test system: T. cruzi epimastigotes, NINOA strain; test: Trypanocidal activity, epimastigotes in vitro, NINOA strain; format: cell-based; conditions: Trypanosoma cruzi; 48 h, resazurin; ± SD; read-out: Epimastigote (In Vitro) NINOA IC50
Description: (§1) The selected drugs were purchased from Sigma-Aldrich without further purification. For the in vitro evaluation, the methodology proposed by Domínguez-Diaz et al. 2021 [53] against epimastigotes of T. cruzi strains NINOA (MHOM/MX/1994/NINOA) and A1 for the evaluation of candidate compounds was used. Both strains were maintained in liver-infusion tryptose (LIT) medium supplemented with 10% fetal bovine serum (FBS) and 0.1% penicillin–streptomycin. These strains were maintained by transferring 1 × 10^6 parasites/mL to fresh medium once a week. […] All compounds were initially prepared at a concentration of 10 mg/mL using dimethyl sulfoxide (DMSO) as a diluent. Serial dilutions were then performed with LIT medium until concentrations of 100 to 0.46 μg/mL of each compound were obtained. Amounts of 1 × 10^6 T. cruzi epimastigotes were grown in each well and incubated for 48 h at 28 °C in a final volume of 200 μL. DMSO was included as a negative control, and reference drugs as positive controls. At the end of the incubation period, 20 μL of resazurin solution (2.5 mM) was added to each well and incubated for 3 h. All assays were performed in triplicate, and the IC50 value was determined by probit analysis.

[3] = test system: T. cruzi epimastigotes, A1 strain; test: Trypanocidal activity, epimastigotes in vitro, A1 strain; format: cell-based; conditions: Trypanosoma cruzi; 48 h, resazurin; ± SD; read-out: Epimastigote (In Vitro) A1 IC50
Description: as §1

[4] = test system: T. cruzi blood trypomastigotes, NINOA strain; test: Trypanocidal activity, blood trypomastigotes ex vivo, NINOA strain; format: cell-based; conditions: Trypanosoma cruzi; 24 h at 4 °C; ± SD; read-out: Trypomastigote (Ex Vivo) NINOA IC50
Method: (§2) Ex vivo evaluation of the trypanocidal activity of the tested compounds was conducted according to previously established protocols. Blood was collected via intracardiac puncture from mice infected with T. cruzi NINOA and A1 strains and diluted in phosphate-buffered saline (PBS, pH 7.2) to achieve a final concentration of 2 × 10^6 blood trypomastigotes/mL. […] The plates were incubated at 4 °C for 24 h. […] Following incubation, live parasites were quantified using a Neubauer chamber, and the half-maximal inhibitory concentration (IC50) was determined by probit analysis. All assays were performed in three independent experiments, each conducted in triplicate.

[5] = test system: T. cruzi blood trypomastigotes, A1 strain; test: Trypanocidal activity, blood trypomastigotes ex vivo, A1 strain; format: cell-based; conditions: Trypanosoma cruzi; 24 h at 4 °C; ± SD; read-out: Trypomastigote (Ex Vivo) A1 IC50
Method: as §2

[6] = test system: T. cruzi amastigotes, NINOA strain; test: Amastigote assay, NINOA strain; format: cell-based; conditions: Trypanosoma cruzi; in J774.2 macrophages, 48 h, MTT; ± SD; read-out: Amastigote (Ex Vivo) NINOA IC50
Method: (§3) Amastigote susceptibility to reference drugs was evaluated in vitro. […] The lysis solution was then replaced with Schneider’s medium followed by incubation at 28 °C for another 4 to 5 days to allow the transformation of viable amastigotes and their subsequent proliferation. Then, MTT colorimetric assays were performed. Finally, the half maximal inhibitory concentration (IC50) was determined by probit analysis. All studies were approved by the Institutional Committee for Handling and Animal Care of the Facultad de Ciencias Quimicas de la Universidad Autonoma “Benito Juarez” de Oaxaca (Register FCQ-CIP-0209243, Approved 23 September 2024) and were carried out according to Mexican guidance (NOM-062-ZOO-1999).

[7] = test system: T. cruzi amastigotes, A1 strain; test: Amastigote assay, A1 strain; format: cell-based; conditions: Trypanosoma cruzi; in J774.2 macrophages, 48 h, MTT; ± SD; read-out: Amastigote (Ex Vivo) A1 IC50
Method: as §3

[8] = biological target: T1, hCA I (Homo sapiens, UniProt P00915); test: CO2 hydrase stopped-flow assay, hCA I; format: biochemical; conditions: mean of three assays, errors ±5–10%
T1 construct: made in house
T1 sequence (P00915 whole entry): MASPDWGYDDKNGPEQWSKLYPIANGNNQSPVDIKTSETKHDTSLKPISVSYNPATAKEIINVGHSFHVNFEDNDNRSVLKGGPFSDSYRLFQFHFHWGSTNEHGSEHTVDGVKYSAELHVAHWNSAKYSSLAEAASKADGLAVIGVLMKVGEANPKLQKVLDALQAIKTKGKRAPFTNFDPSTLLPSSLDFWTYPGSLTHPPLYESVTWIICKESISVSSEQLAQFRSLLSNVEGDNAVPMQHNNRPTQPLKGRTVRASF
Method: (§4) An Applied Photophysics stopped-flow instrument was used for assaying the CA-catalysed CO2 hydration activity. […] The uncatalyzed rates were determined in the same manner and subtracted from the total observed rates. Stock solutions of inhibitor (0.1 mM) were prepared in distilled/deionized water, and dilutions up to 0.01 nM were performed thereafter with the assay buffer. Inhibitor and enzyme solutions were preincubated together for 15 min at room temperature before assaying to allow for the formation of the E–I complex. The inhibition constants were obtained by nonlinear least-squares methods using PRISM 3 and the Cheng–Prusoff equation and represent the mean from at least three different determinations. […] All hCA isoforms were recombinant ones obtained in-house, as reported earlier.

[9] = biological target: T2, hCA II (Homo sapiens, UniProt P00918); test: CO2 hydrase stopped-flow assay, hCA II; format: biochemical; conditions: mean of three assays, errors ±5–10%
T2 construct: made in house
Method: as §4

[10] = biological target: α-TcCA (Trypanosoma cruzi, UniProt Q4CVY4); test: CO2 hydrase stopped-flow assay, α-TcCA
Sequence of α-TcCA (Q4CVY4 entry or part of it): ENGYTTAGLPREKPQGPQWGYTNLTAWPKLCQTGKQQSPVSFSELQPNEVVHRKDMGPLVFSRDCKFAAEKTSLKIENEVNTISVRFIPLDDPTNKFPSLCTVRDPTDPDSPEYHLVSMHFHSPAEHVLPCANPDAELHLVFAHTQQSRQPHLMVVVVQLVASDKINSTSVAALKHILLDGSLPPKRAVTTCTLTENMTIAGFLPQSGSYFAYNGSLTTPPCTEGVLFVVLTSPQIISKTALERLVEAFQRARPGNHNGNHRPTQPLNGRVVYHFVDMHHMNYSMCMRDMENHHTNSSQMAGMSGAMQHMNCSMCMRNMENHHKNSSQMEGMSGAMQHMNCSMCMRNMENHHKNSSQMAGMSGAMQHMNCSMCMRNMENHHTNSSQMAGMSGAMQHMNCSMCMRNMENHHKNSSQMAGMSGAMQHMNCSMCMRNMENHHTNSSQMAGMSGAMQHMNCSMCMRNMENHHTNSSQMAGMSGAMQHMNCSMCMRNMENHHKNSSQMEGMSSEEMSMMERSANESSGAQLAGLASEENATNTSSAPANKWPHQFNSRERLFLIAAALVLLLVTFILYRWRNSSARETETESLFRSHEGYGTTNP
Method: An Applied Photophysics stopped-flow instrument was used for assaying the CA-catalysed CO2 hydration activity [31]. […] The uncatalyzed rates were determined in the same manner and subtracted from the total observed rates. Stock solutions of inhibitor (0.1 mM) were prepared in distilled/deionized water, and dilutions up to 0.01 nM were performed thereafter with the assay buffer. Inhibitor and enzyme solutions were preincubated together for 15 min at room temperature before assaying to allow for the formation of the E–I complex. The inhibition constants were obtained by nonlinear least-squares methods using PRISM 3 and the Cheng–Prusoff equation and represent the mean from at least three different determinations.

[11] = test system: T. cruzi epimastigotes; design: method as in PMID 32560043; conditions: in vitro epimastigote model; cited from earlier work

| Structure (SMILES) | CC50 at 48 h [1] [µM] | IC50 [2] [µM] | IC50 [3] [µM] | IC50 [4] [µM] | IC50 [5] [µM] | IC50 [6] [µM] | IC50 [7] [µM] | Ki [8] [µM] | Ki [9] [µM] | Ki [10] [µM] | KI TcCA ([10]; mean of three assays, errors ±5–10%) | IC50 [11] [µM] |
| --- | --- | --- | --- | --- | --- | --- | --- | --- | --- | --- | --- | --- |
| CC(=O)Nc1nnc(S(N)(=O)=O)s1 [Aaz, acetazolamide] | 12.6 ± 4.7 |  |  |  |  |  |  |  |  |  |  |  |
| CC(=O)c1ccc(S(=O)(=O)NC(=O)NC2CCCCC2)cc1 [Ace, acetohexamide] | > 200 | 6.5 ± 2.1 | 52.9 ± 2.7 | 46.5 ± 0.1 | > 200 | 46 ± 0.6 | > 200 | 17.3 | 2.9 | 5.6 |  |  |
| O=C(Cn1ccnc1[N+](=O)[O-])NCc1ccccc1 [Bzn, Benznidazole] |  | 30.3 ± 0.03 | 19.3 ± 0.08 | 167.1 ± 0.03 | 145.3 ± 0.2 |  |  |  |  |  |  |  |
| Cc1ccc(S(=O)(=O)NC(=O)NN2CC3CCCC3C2)cc1 (stereo not shown) [Glic, gliclazide] | > 200 | > 200 | 10.7 ± 1.5 | 89.4 ± 0.1 | > 200 | > 200 | 12.3 ± 0.01 | > 100 |  | > 100 |  |  |
| CCC1=C(C)CN(C(=O)NCCc2ccc(S(=O)(=O)NC(=O)N[C@H]3CC[C@H](C)CC3)cc2)C1=O [Glim, glimepiride] | 14.2 ± 2.3 | 70.2 ± 3.2 | 37.6 ± 1.5 | > 200 | > 200 | > 200 | 50.26 ± 0.01 | > 100 | 19.9 | 35.7 |  |  |
| CC1CS(=O)(=O)CCN1/N=C/c1ccc([N+](=O)[O-])o1 (stereo not shown) [Nfx, Nifurtimox] |  | 7.1 ± 0.1 | 39.1 ± 0.07 | 156 ± 0.1 | 118.2 ± 0.02 | 70.5 ± 0.6 | 54.8 ± 0.01 |  |  |  |  |  |
| CCCCNC(=O)NS(=O)(=O)c1ccc(C)cc1 [Tol, tolbutamide] | > 200 | 8.5 ± 1.4 | > 200 | 9.8 ± 0.1 | 97.7 ± 0.1 | 148.7 ± 0.01 | 44.5 ± 0.01 | > 100 | > 100 | > 100 | did not exhibit inhibitory activity |  |
| Cc1cnc(C(=O)NCCc2ccc(S(=O)(=O)NC(=O)NC3CCCCC3)cc2)cn1 [glipizide] |  |  |  |  |  |  |  |  |  |  |  | 13.4 ± 6 |
